Results: PubChem BioAssay (NCI)
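Five compound concentrations were applied to cells in 96-well plates for 48 hours; endpoints were derived by simple linear interpolation of the resulting dose-response curve. The concentration for 50% growth inhibition is given as GI50. TGI: total growth inhibition.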

How the values were obtained:
Assay in all cases: growth of human tumour cells (NCI), 48 h; in the data active = GI50 below about 0.43 µM; inactive = the rest
[1] = tested on: RPMI-8226 leukemia
[2] = tested on: HS 578T breast
[3] = tested on: SK-MEL-5 melanoma
[4] = tested on: UACC-257 melanoma
[5] = tested on: SF-295 CNS
[6] = tested on: SN12C renal
[7] = tested on: K-562 leukemia
[8] = tested on: SF-268 CNS
[9] = tested on: NCI-H23 lung
[10] = tested on: SR leukemia
[11] = tested on: HOP-62 NSCLC
[12] = tested on: HT29 colon
[13] = tested on: EKVX NSCLC
[14] = tested on: OVCAR-8 ovarian
[15] = tested on: SNB-75 CNS
[16] = tested on: A498 renal
[17] = tested on: SK-MEL-28 melanoma
[18] = tested on: SW-620 colon
[19] = tested on: NCI-H460 lung
[20] = tested on: U251 CNS
[21] = tested on: UACC-62 melanoma
[22] = tested on: M14 melanoma
[23] = tested on: MOLT-4 leukemia
[24] = tested on: HCC-2998 colon
[25] = tested on: NCI-H226 lung
[26] = tested on: SNB-19 CNS
[27] = tested on: COLO 205 colon
[28] = tested on: NCI-H522 lung
[29] = tested on: BT-549 breast
[30] = tested on: TK-10 renal
[31] = tested on: IGROV1 ovarian
[32] = tested on: SK-OV-3 ovarian
[33] = tested on: ACHN renal
[34] = tested on: MCF7 breast
[35] = tested on: HCT-15 colon
[36] = tested on: OVCAR-4 ovarian
[37] = tested on: OVCAR-5 ovarian
[38] = tested on: MDA-MB-231 breast
[39] = tested on: UO-31 renal
[40] = tested on: PC-3 prostate
[41] = tested on: DU-145 prostate
[42] = tested on: 786-0 renal
[43] = tested on: NCI/ADR-RES ovarian
[44] = tested on: LOX IMVI melanoma
[45] = tested on: CCRF-CEM leukemia
[46] = tested on: KM12 colon
[47] = tested on: HCT-116 colon
[48] = tested on: HOP-92 NSCLC
[49] = tested on: HL-60(TB) leukemia
[50] = tested on: OVCAR-3 ovarian
[51] = tested on: SF-539 CNS
[52] = tested on: SK-MEL-2 melanoma
[53] = tested on: CAKI-1 renal
[54] = tested on: MDA-MB-435
[55] = tested on: A549 NSCLC

COC(=O)[C@@H](C)C[C@H](Cc1ccc2ccccc2c1)NC(=O)c1csc([C@@H](C[C@H](C(C)C)N(C)C(=O)[C@@H](NC(=O)[C@H]2CCCCN2C)C(C)C)OC(C)=O)n1
8.76 µM: TGI [7]
9.42 µM: TGI [4]
4.29 µM: TGI [22]
3.57 µM: TGI [10]
0.282 µM: TGI [27]
7.17 µM: TGI [38]
7.54 µM: TGI [23]
10.7 µM: TGI [20]
inactive: GI50 [4] 4.13 µM | GI50 [17] 2.7 µM | GI50 [25] 7.11 µM | GI50 [30] 8.8 µM | GI50 [43] 0.614 µM
5.99 µM: TGI [1]
5.18 µM: TGI [39]
6.03 µM: TGI [28]
4.52 µM: TGI [12]
4.59 µM: TGI [33]
5.08 µM: TGI [42]
4.78 µM: TGI [44]
21.6 µM: TGI [24]
> 25 µM: TGI [2] | TGI [5] | TGI [6] | TGI [8] | TGI [9] | TGI [11] | TGI [13] | TGI [14] | TGI [15] | TGI [16] | TGI [18] | TGI [19] | TGI [25] | TGI [26] | TGI [30] | TGI [31] | TGI [32] | TGI [35] | TGI [36] | TGI [37] | TGI [41] | TGI [43] | TGI [45] | TGI [46]
13 µM: TGI [47]
7.78 µM: TGI [21]
1.42 µM: TGI [3]
0.374 µM: TGI [29]
6.6 µM: TGI [17]
7.77 µM: TGI [40]
active: GI50 [1] 0.00932 µM | GI50 [2] 0.0122 µM | GI50 [3] 0.0122 µM | GI50 [5] 0.0107 µM | GI50 [6] 0.047 µM | GI50 [7] 0.00706 µM | GI50 [8] 0.021 µM | GI50 [9] 0.0281 µM | GI50 [10] 0.0025 µM | GI50 [11] 0.0221 µM | GI50 [12] 0.00829 µM | GI50 [13] 0.0418 µM | GI50 [14] 0.0445 µM | GI50 [15] 0.00524 µM | GI50 [16] 0.0745 µM | GI50 [18] 0.0147 µM | GI50 [19] 0.0118 µM | GI50 [20] 0.0128 µM | GI50 [21] 0.00995 µM | GI50 [22] 0.0129 µM | GI50 [23] 0.0115 µM | GI50 [24] 0.0529 µM | GI50 [26] 0.0153 µM | GI50 [27] 0.016 µM | GI50 [28] 0.00561 µM | GI50 [29] 0.013 µM | GI50 [31] 0.0183 µM | GI50 [32] 0.048 µM | GI50 [33] 0.164 µM | GI50 [34] 0.00699 µM | GI50 [35] 0.0522 µM | GI50 [36] 0.129 µM | GI50 [37] 0.0629 µM | GI50 [38] 0.0206 µM | GI50 [39] 0.286 µM | GI50 [40] 0.0106 µM | GI50 [41] 0.00984 µM | GI50 [42] 0.00994 µM | GI50 [44] 0.013 µM | GI50 [45] 0.0103 µM | GI50 [46] 0.011 µM | GI50 [47] 0.00865 µM
9.21 µM: TGI [34]

CC(=O)NS(=O)(=O)c1ccc(-n2nc(-c3ccc(Cl)cc3)cc2-c2cc(O)ccc2O)cc1
27.6 µM: TGI [21]
26.5 µM: TGI [35]
93.4 µM: TGI [16]
47.5 µM: TGI [41]
22.8 µM: TGI [38]
27 µM: TGI [22]
40 µM: TGI [37]
70 µM: TGI [43]
39.7 µM: TGI [24]
40.8 µM: TGI [6]
56.9 µM: TGI [53]
> 100 µM: TGI [2] | TGI [3] | TGI [5] | TGI [8] | TGI [10] | TGI [13] | TGI [14] | TGI [49] | TGI [18] | TGI [19] | TGI [23] | TGI [52] | TGI [28] | TGI [29] | TGI [31] | TGI [34] | TGI [54] | TGI [45] | TGI [46] | TGI [55]
32.6 µM: TGI [9]
92.6 µM: TGI [30]
45.6 µM: TGI [39]
36.2 µM: TGI [25]
29.6 µM: TGI [42]
45.7 µM: TGI [4]
48.4 µM: TGI [48]
84.9 µM: TGI [50]
30 µM: TGI [40]
59.8 µM: TGI [1]
81.6 µM: TGI [51]
inactive: GI50 [1] 21.1 µM | GI50 [2] 62.2 µM | GI50 [3] 36.4 µM | GI50 [4] 15.9 µM | GI50 [5] 30.9 µM | GI50 [6] 19.6 µM | GI50 [7] 29.9 µM | GI50 [8] 52.1 µM | GI50 [9] 18.6 µM | GI50 [48] 17.1 µM | GI50 [10] 39.5 µM | GI50 [13] 46.1 µM | GI50 [14] 33 µM | GI50 [49] 40.8 µM | GI50 [50] 32.6 µM | GI50 [16] 24.8 µM | GI50 [18] 75 µM | GI50 [19] > 100 µM | GI50 [21] 14.5 µM | GI50 [22] 14 µM | GI50 [23] 87.3 µM | GI50 [51] 32.4 µM | GI50 [24] 20.7 µM | GI50 [25] 14.4 µM | GI50 [52] > 100 µM | GI50 [28] 37 µM | GI50 [29] > 100 µM | GI50 [30] 31.7 µM | GI50 [31] 92.8 µM | GI50 [34] > 100 µM | GI50 [35] 13.6 µM | GI50 [53] 28.1 µM | GI50 [37] 20.1 µM | GI50 [38] 10.9 µM | GI50 [39] 20.5 µM | GI50 [40] 13.8 µM | GI50 [41] 21.5 µM | GI50 [54] 31.6 µM | GI50 [42] 16.1 µM | GI50 [43] 27.2 µM | GI50 [45] 5.55 µM | GI50 [46] 41.1 µM | GI50 [55] 34.9 µM
96 µM: TGI [7]
